# Assay results as given in ChEMBL document CHEMBL1201862, “PubChem BioAssay data set” (2004).
#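 Following 48 hours of exposure in 96-well plates, responses at five concentrations were used to interpolate endpoints linearly. GI50: concentration for 50% inhibition of growth.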 The source made the active and inactive calls. No stated cut-off is given here; in the data, active = GI50 up to about 1.1 µM and inactive = higher.
# What was measured:
# Experiment in all cases: inhibition of tumour cell growth, NCI panel, 48 h
# TK-10 = system: TK-10
# DMS-114 = system: DMS-114
# HCT-15 = system: HCT-15
# EKVX = system: EKVX
# SF-539 = system: SF-539
# SF-295 = system: SF-295
# OVCAR-8 = system: OVCAR-8
# A498 = system: A498
# HT-29 = system: HT-29
# RXF 393 = system: RXF 393
# NCI-H23 = system: NCI-H23
# A549 = system: A549
# CCRF-CEM = system: CCRF-CEM
# HCT-116 = system: HCT-116
# NCI-H522 = system: NCI-H522
# HOP-92 = system: HOP-92
# SK-MEL-2 = system: SK-MEL-2
# MDA-MB-231 = system: MDA-MB-231
# DU-145 = system: DU-145
# NCI/ADR-RES = system: NCI/ADR-RES
SMILES,GI50 (TK-10),GI50 (DMS-114),GI50 (HCT-15),GI50 (EKVX),GI50 (SF-539),GI50 (SF-295),GI50 (OVCAR-8),GI50 (A498),GI50 (HT-29),GI50 (RXF 393),GI50 (NCI-H23),GI50 (A549),GI50 (CCRF-CEM),GI50 (HCT-116),GI50 (NCI-H522),GI50 (HOP-92),GI50 (SK-MEL-2),GI50 (MDA-MB-231),GI50 (DU-145),GI50 (NCI/ADR-RES)
CC(=O)N1C(=O)C(=O)c2cc(Cl)ccc21,> 100 µM (inactive),> 100 µM (inactive),> 100 µM,> 100 µM (inactive),> 100 µM (inactive),> 100 µM (inactive),> 100 µM (inactive),> 100 µM (inactive),> 100 µM (inactive),> 100 µM (inactive),> 100 µM (inactive),> 100 µM (inactive),> 10 µM (inactive),–,–,–,–,–,–,–
Oc1cccc2c1NC1=C(CCC/C1=C\c1ccccc1)C2,> 100 µM (inactive),67.8 µM (inactive),43.4 µM,> 100 µM (inactive),20.6 µM (inactive),71.8 µM (inactive),> 100 µM (inactive),–,49.8 µM (inactive),–,58.2 µM (inactive),> 100 µM (inactive),37.3 µM (inactive),82.6 µM (inactive),11 µM (inactive),–,–,–,–,–
OC1CN(OC/C=C/c2ccccc2)CC(O)C1O (configuration not stated),> 100 µM (inactive),> 100 µM (inactive),> 100 µM,> 100 µM (inactive),> 100 µM (inactive),> 100 µM (inactive),> 100 µM (inactive),> 100 µM (inactive),> 100 µM (inactive),> 100 µM (inactive),> 100 µM (inactive),> 100 µM (inactive),> 100 µM (inactive),> 100 µM (inactive),–,> 100 µM (inactive),> 100 µM (inactive),–,–,–
Cc1cccc(C2=C/C(=C(\SS/C(C(=O)c3ccc(OCC(=O)O)c(Cl)c3Cl)=C3\C=C(c4cccc(C)c4)SS3)C(=O)c3ccc(OCC(=O)O)c(Cl)c3Cl)SS2)c1,27.9 µM (inactive),5.42 µM (inactive),12 µM,56.5 µM (inactive),12.4 µM (inactive),24.5 µM (inactive),11.7 µM (inactive),24.4 µM (inactive),27.7 µM (inactive),–,12.1 µM (inactive),28.8 µM (inactive),4.71 µM (inactive),10.2 µM (inactive),2.12 µM (inactive),5.45 µM (inactive),19.1 µM (inactive),–,–,–
Cc1ccc(NC(=O)CC(=O)n2nc(-c3ccccc3)c(/N=N/c3ccc(Cl)cc3)c2-c2ccccc2)cc1,22.3 µM (inactive),39.6 µM (inactive),88.7 µM,> 100 µM (inactive),28.8 µM (inactive),58.9 µM (inactive),26 µM (inactive),> 100 µM (inactive),17.9 µM (inactive),–,58.1 µM (inactive),28.2 µM (inactive),24.4 µM (inactive),19.5 µM (inactive),–,39.7 µM (inactive),> 100 µM (inactive),–,–,–
COc1ccc(/C=C/C(C(=O)O)C(=O)O)cc1,> 100 µM (inactive),> 100 µM (inactive),45.6 µM,78.9 µM (inactive),> 100 µM (inactive),> 100 µM (inactive),> 100 µM (inactive),–,78.9 µM (inactive),–,> 100 µM (inactive),> 100 µM (inactive),26.2 µM (inactive),> 100 µM (inactive),30.8 µM (inactive),72.1 µM (inactive),> 100 µM (inactive),–,–,–
Cc1c(C(=O)C/C(=N/NC(=O)C[n+]2ccccc2)C(=O)Nc2ccccc2)[n+]([O-])c2ccccc2[n+]1[O-],> 100 µM (inactive),> 100 µM (inactive),> 100 µM,> 100 µM (inactive),> 100 µM (inactive),> 100 µM (inactive),> 100 µM (inactive),> 100 µM (inactive),> 100 µM (inactive),> 100 µM (inactive),> 100 µM (inactive),> 100 µM (inactive),> 100 µM (inactive),> 100 µM (inactive),> 100 µM (inactive),–,> 100 µM (inactive),–,–,–
C#C[C@]1(O)CCCC2=CC(=O)CC[C@@]21C,> 100 µM (inactive),> 100 µM (inactive),> 100 µM,> 100 µM (inactive),> 100 µM (inactive),> 100 µM (inactive),> 100 µM (inactive),–,> 100 µM (inactive),> 100 µM (inactive),> 100 µM (inactive),> 100 µM (inactive),> 100 µM (inactive),–,> 100 µM (inactive),> 100 µM (inactive),> 100 µM (inactive),–,–,–
Cn1cnc([N+](=O)[O-])c1Sc1nnnn1-c1ccccc1,17.9 µM (inactive),15.5 µM (inactive),–,16 µM (inactive),12.2 µM (inactive),17.8 µM (inactive),13.8 µM (inactive),18.7 µM (inactive),15.7 µM (inactive),–,19.4 µM (inactive),23.9 µM (inactive),2.39 µM (inactive),11.3 µM (inactive),2.34 µM (inactive),2.72 µM (inactive),14.1 µM (inactive),–,–,–
Cc1cccc(C)c1NC(=O)CCCC(=O)C(C#N)c1ccc(Cl)cc1 (configuration not stated),> 100 µM (inactive),> 100 µM (inactive),> 100 µM,> 100 µM (inactive),> 100 µM (inactive),> 100 µM (inactive),> 100 µM (inactive),> 100 µM (inactive),> 100 µM (inactive),–,> 100 µM (inactive),> 100 µM (inactive),> 100 µM (inactive),> 100 µM (inactive),> 100 µM (inactive),> 100 µM (inactive),> 100 µM (inactive),–,–,–
NC(CCSCCF)C(=O)O (configuration not stated),> 100 µM (inactive),> 100 µM (inactive),> 100 µM,> 100 µM (inactive),> 100 µM (inactive),–,–,> 100 µM (inactive),> 100 µM (inactive),–,> 100 µM (inactive),> 100 µM (inactive),> 100 µM (inactive),> 100 µM (inactive),> 100 µM (inactive),> 100 µM (inactive),> 100 µM (inactive),–,–,–
CC(=O)O[C@@H]1CC[C@@]2(C)C(=O)C34C[C@@]5(C)C([C@@H](C)CCCC(C)C)CCC5(C)[C@](O)(O3)C(=O)[C@H]4C2C1(C)C (some centres not stated),16.6 µM (inactive),17.4 µM (inactive),13.5 µM,18.4 µM (inactive),19.3 µM (inactive),16.3 µM (inactive),16.5 µM (inactive),22.2 µM (inactive),13 µM (inactive),–,13.4 µM (inactive),13.3 µM (inactive),4.3 µM (inactive),14 µM (inactive),12.3 µM (inactive),19.1 µM (inactive),19.8 µM (inactive),–,–,–
Cc1nc(N)nc(S)c1CCC(=O)O,> 100 µM (inactive),–,> 100 µM,> 100 µM (inactive),> 100 µM (inactive),> 100 µM (inactive),> 100 µM (inactive),> 100 µM (inactive),> 100 µM (inactive),> 100 µM (inactive),> 100 µM (inactive),> 100 µM (inactive),> 100 µM (inactive),> 100 µM (inactive),> 100 µM (inactive),> 100 µM (inactive),> 100 µM (inactive),> 100 µM (inactive),> 100 µM (inactive),> 100 µM (inactive)
CC(=O)Nc1ccc2c3c(cc(O)c2c1)N(C(=O)CCCCCCC(=O)N1CC(CCl)c2c1cc(O)c1cc(NC(C)=O)ccc21)CC3CCl (configuration not stated),0.0251 µM (active),–,0.231 µM,0.0505 µM (active),< 0.01 µM (active),< 0.01 µM (active),< 0.01 µM (active),< 0.01 µM (active),0.0172 µM (active),< 0.01 µM (active),< 0.01 µM (active),0.0113 µM (active),< 0.01 µM (active),< 0.01 µM (active),< 0.01 µM (active),< 0.0117 µM (active),< 0.01 µM (active),0.0203 µM (active),< 0.01 µM (active),0.673 µM (active)
c1ccc2c(c1)nc1n2C2CCC(C2)N1 (configuration not stated),> 10 µM (inactive),–,> 10 µM,> 10 µM (inactive),> 10 µM (inactive),> 10 µM (inactive),> 10 µM (inactive),> 10 µM (inactive),> 10 µM (inactive),> 10 µM (inactive),> 10 µM (inactive),> 10 µM (inactive),> 10 µM (inactive),> 10 µM (inactive),> 10 µM (inactive),> 10 µM (inactive),> 10 µM (inactive),> 10 µM (inactive),> 10 µM (inactive),> 10 µM (inactive)
CSCC(COC(C)=O)(CSC)c1ccncc1,> 100 µM (inactive),> 100 µM (inactive),> 100 µM,> 100 µM (inactive),> 100 µM (inactive),> 100 µM (inactive),> 100 µM (inactive),> 100 µM (inactive),> 100 µM (inactive),> 100 µM (inactive),> 100 µM (inactive),> 100 µM (inactive),> 100 µM (inactive),> 100 µM (inactive),> 100 µM (inactive),–,> 100 µM (inactive),–,–,–
COC(=O)C1=C(C(=O)OC)N(c2ccc(OC)cc2[N+](=O)[O-])C(c2ccc(C)cc2)=CC1c1ccc(OC)cc1OC (configuration not stated),18.5 µM (inactive),–,4.65 µM,34.5 µM (inactive),6.61 µM (inactive),29 µM (inactive),13.6 µM (inactive),16 µM (inactive),6.53 µM (inactive),5.25 µM (inactive),22.4 µM (inactive),7.89 µM (inactive),3.86 µM (inactive),10.7 µM (inactive),14.1 µM (inactive),47.2 µM (inactive),29.6 µM (inactive),23.3 µM (inactive),25.2 µM (inactive),22.9 µM (inactive)
